Experimental data from the supplement of paper PMC4862054.

Columns and labels:
Conditions in all cases: incubation time: 72 h
[1] = test system: HCC1599; experiment: normalised response (% of control), CellTox Green; higher = less cell death (100 = DMSO, 0 = benzethonium chloride kill control)
Method in brief: (§1)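 The table gives the normalised signal for a single concentration in each entry. Breast cancer cell lines were seeded (20 µl suspension) into 384-well plates holding compound at 5 concentrations in 10-fold steps over a compound-specific 10,000-fold range and incubated 72 h, then read for CellTox Green fluorescence (485/520 nm) and CellTiter-Glo luminescence. Normalisation on each plate used 0.1 % DMSO (100) and a positive kill control (0).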

[2] = test system: BT-474; experiment: as above
Method in brief: as §1

[3] = test system: CAL-85-1; experiment: as above
Method in brief: as §1

[4] = test system: MDA-MB-436; experiment: as above
Method in brief: as §1

[5] = test system: MDA-MB-231; experiment: as above
Method in brief: as §1

[6] = test system: DU-4475; experiment: as above
Method in brief: as §1

[7] = test system: MCF-10A; experiment: as above
Method in brief: as §1

[8] = test system: HDQ-P1; experiment: as above
Method in brief: as §1

[9] = test system: MDA-MB-453; experiment: as above
Method in brief: as §1

[10] = test system: CAL-120; experiment: as above
Method in brief: as §1

[11] = test system: CAL-148; experiment: as above
Method in brief: as §1

[12] = test system: BT-549; experiment: as above
Method in brief: as §1

[13] = test system: CAL-51; experiment: as above
Method in brief: as §1

[14] = test system: MDA-MB-468; experiment: as above
Method in brief: as §1

[15] = test system: HCC1599; experiment: normalised response (% of control), CellTiter-Glo; higher = more viable cells (100 = DMSO, 0 = benzethonium chloride kill control)
Procedure: (§2)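 DSRT, 72 h incubation, CellTox Green / CellTiter-Glo readout. Signal is normalised to DMSO and benzethonium chloride controls. Value is the normalised response at dose 3.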

[16] = test system: BT-474; experiment: as above
Procedure: as §2

[17] = test system: CAL-85-1; experiment: as above
Procedure: as §2

[18] = test system: MDA-MB-436; experiment: as above
Procedure: as §2

[19] = test system: MDA-MB-231; experiment: as above
Procedure: as §2

[20] = test system: SK-BR-3; experiment: as above
Procedure: as §2

[21] = test system: HCC1143; experiment: as above
Procedure: as §2

[22] = test system: DU-4475; experiment: as above
Procedure: as §2

[23] = test system: MCF-10A; experiment: as above
Procedure: as §2

[24] = test system: HCC1937; experiment: as above
Procedure: as §2

[25] = test system: HDQ-P1; experiment: as above
Procedure: as §2

[26] = test system: MDA-MB-453; experiment: as above
Procedure: as §2

[27] = test system: CAL-120; experiment: as above
Procedure: as §2

[28] = test system: CAL-148; experiment: as above
Procedure: as §2

[29] = test system: MFM-223; experiment: as above
Procedure: as §2

[30] = test system: BT-549; experiment: as above
Procedure: as §2

[31] = test system: Hs578T; experiment: as above
Procedure: as §2

[32] = test system: CAL-51; experiment: as above
Procedure: as §2

[33] = test system: MDA-MB-468; experiment: as above
Procedure: as §2

[34] = test system: HCC1143; experiment: normalised response (% of control), CellTox Green; higher = less cell death (100 = DMSO, 0 = benzethonium chloride kill control)
Method in brief: as §1

[35] = test system: HCC1937; experiment: as above
Method in brief: as §1

[36] = test system: MFM-223; experiment: as above
Method in brief: as §1

[37] = test system: Hs578T; experiment: as above
Method in brief: as §1

[38] = test system: HCC1599; experiment: normalised response (% of control), CellTiter-Glo; higher = more viable cells (100 = DMSO, 0 = benzethonium chloride kill control); remark: listed apart in the source
Method in brief: as §1

[39] = test system: BT-474; experiment: as above; remark: listed apart in the source
Method in brief: as §1

[40] = test system: CAL-85-1; experiment: as above; remark: listed apart in the source
Method in brief: as §1

[41] = test system: MDA-MB-436; experiment: as above; remark: listed apart in the source
Method in brief: as §1

[42] = test system: MDA-MB-231; experiment: as above; remark: listed apart in the source
Method in brief: as §1

[43] = test system: SK-BR-3; experiment: as above; remark: listed apart in the source
Method in brief: as §1

[44] = test system: HCC1143; experiment: as above; remark: listed apart in the source
Method in brief: as §1

[45] = test system: DU-4475; experiment: as above; remark: listed apart in the source
Method in brief: as §1

[46] = test system: MCF-10A; experiment: as above; remark: listed apart in the source
Method in brief: as §1

[47] = test system: HCC1937; experiment: as above; remark: listed apart in the source
Method in brief: as §1

[48] = test system: HDQ-P1; experiment: as above; remark: listed apart in the source
Method in brief: as §1

[49] = test system: MDA-MB-453; experiment: as above; remark: listed apart in the source
Method in brief: as §1

[50] = test system: CAL-120; experiment: as above; remark: listed apart in the source
Method in brief: as §1

[51] = test system: CAL-148; experiment: as above; remark: listed apart in the source
Method in brief: as §1

[52] = test system: MFM-223; experiment: as above; remark: listed apart in the source
Method in brief: as §1

[53] = test system: BT-549; experiment: as above; remark: listed apart in the source
Method in brief: as §1

[54] = test system: Hs578T; experiment: as above; remark: listed apart in the source
Method in brief: as §1

[55] = test system: CAL-51; experiment: as above; remark: listed apart in the source
Method in brief: as §1

[56] = test system: MDA-MB-468; experiment: as above; remark: listed apart in the source
Method in brief: as §1

Compound	normalised response [1]	normalised response [2]	normalised response [3]	normalised response [4]	normalised response [5]	normalised response [6]	normalised response [7]	normalised response [8]	normalised response [9]	normalised response [10]	normalised response [11]	normalised response [12]	normalised response [13]	normalised response [14]	normalised response [34]	normalised response [35]	normalised response [36]	normalised response [37]	normalised response [38]	normalised response [39]	further results
Cn1cc(C[C@@H](N)C(=O)O)c2ccccc21 [1-methyl-D-tryptophan] (50 nM)	94.2%	99.9%	98.5%	73.2%	83%	103%	102%	105%	105%	96.8%	68.5%	88%	80.4%	99.9%	–	–	–	–	–	–	normalised response [15]: 92.6%; normalised response [16]: 103%; normalised response [17]: 102%; normalised response [18]: 102%; normalised response [19]: 98.5%; normalised response [20]: 90.8%; normalised response [21]: 99%; normalised response [22]: 100%; normalised response [23]: 102%; normalised response [24]: 96.2%; normalised response [25]: 102%; normalised response [26]: 96%; normalised response [27]: 104%; normalised response [28]: 90.1%; normalised response [29]: 93.4%; normalised response [30]: 107%; normalised response [31]: 95.4%; normalised response [32]: 67.8%; normalised response [33]: 92.6%
CC(C)n1nc(-c2ccc3oc(N)nc3c2)c2c(N)ncnc21 [INK128] (100 nM)	95.5%	96.5%	101%	94.4%	108%	94%	95.8%	108%	26%	97.1%	58.8%	115%	87.6%	137%	8.7%	96.1%	93.9%	65.8%	68%	50.4%	normalised response [40]: 35.4%; normalised response [41]: 48.6%; normalised response [42]: 50.3%; normalised response [43]: 22.6%; normalised response [44]: 39.9%; normalised response [45]: 66%; normalised response [46]: 43.5%; normalised response [47]: 59.7%; normalised response [48]: 42.6%; normalised response [49]: 37.2%; normalised response [50]: 30.6%; normalised response [51]: 32.7%; normalised response [52]: 32.2%; normalised response [53]: 30.7%; normalised response [54]: 35.1%; normalised response [55]: 29.3%; normalised response [56]: 39.5%
N[C@@H](Cc1ccc(N(CCCl)CCCl)cc1)C(=O)O [Melphalan] (1250 nM)	45.5%	-13.4%	-12%	84%	-55.7%	51.8%	-50.4%	-17.2%	25.6%	72.2%	4.59%	28.1%	-30.1%	-18.1%	95.9%	18.1%	10.1%	35.8%	2.61%	1.75%	normalised response [40]: 0.23%; normalised response [41]: 9.28%; normalised response [42]: 0.06%; normalised response [43]: -0.01%; normalised response [44]: 34.5%; normalised response [45]: 0%; normalised response [46]: 0.24%; normalised response [47]: 4.2%; normalised response [48]: 1.18%; normalised response [49]: 0.2%; normalised response [50]: 50%; normalised response [51]: 7.68%; normalised response [52]: 0.49%; normalised response [53]: 22.1%; normalised response [54]: 16.4%; normalised response [55]: 0.26%; normalised response [56]: 0.81%
CO[C@H]1C[C@@H]2CC[C@@H](C)[C@@](O)(O2)C(=O)C(=O)N2CCCC[C@H]2C(=O)O[C@H]([C@H](C)C[C@@H]2CC[C@@H](O)[C@H](OC)C2)CC(=O)[C@H](C)/C=C(\C)[C@@H](O)[C@@H](OC)C(=O)[C@H](C)C[C@H](C)/C=C/C=C/C=C/1C [Sirolimus] (10 nM)	90.7%	94.8%	108%	69.6%	116%	102%	104%	109%	107%	105%	52.9%	87.2%	104%	157%	115%	97.7%	91.1%	59.7%	98.8%	83.5%	normalised response [40]: 63%; normalised response [41]: 79.1%; normalised response [42]: 93.9%; normalised response [43]: 66.4%; normalised response [44]: 69.1%; normalised response [45]: 88.5%; normalised response [46]: 102%; normalised response [47]: 81.5%; normalised response [48]: 82.8%; normalised response [49]: 66.2%; normalised response [50]: 67.3%; normalised response [51]: 67.1%; normalised response [52]: 70.9%; normalised response [53]: 58.3%; normalised response [54]: 67.5%; normalised response [55]: 65.5%; normalised response [56]: 51.8%
